For orientation: IC50 means the concentration at which inhibition is half-maximal.

In patent publication US12128028B2, “Heterocyclic sulfonamide derivatives and pharmaceutical uses thereof” (METRION BIOSCIENCES LIMITED, priority 2018, dated 2024) one finds IC50 data, which are given here for 45 molecules.

Sequence of human Kv1.3 (P22001 whole entry): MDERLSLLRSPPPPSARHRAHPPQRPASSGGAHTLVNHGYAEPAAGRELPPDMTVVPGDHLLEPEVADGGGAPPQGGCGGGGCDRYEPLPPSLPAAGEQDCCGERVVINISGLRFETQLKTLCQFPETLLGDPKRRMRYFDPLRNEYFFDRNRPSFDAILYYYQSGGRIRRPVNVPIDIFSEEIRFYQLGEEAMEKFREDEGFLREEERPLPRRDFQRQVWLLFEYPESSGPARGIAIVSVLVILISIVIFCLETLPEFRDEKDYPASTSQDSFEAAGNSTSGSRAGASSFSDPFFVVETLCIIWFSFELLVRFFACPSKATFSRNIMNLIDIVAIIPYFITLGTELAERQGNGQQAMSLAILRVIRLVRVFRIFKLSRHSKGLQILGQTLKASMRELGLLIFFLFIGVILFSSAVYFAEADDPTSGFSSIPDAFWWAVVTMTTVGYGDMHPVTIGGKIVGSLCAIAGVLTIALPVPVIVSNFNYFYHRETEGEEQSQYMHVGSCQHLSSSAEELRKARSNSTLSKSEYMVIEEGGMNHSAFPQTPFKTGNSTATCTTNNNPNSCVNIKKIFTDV

This experiment addresses human Kv1.3 (Homo sapiens (Human), UniProt P22001). Kind of experiment: Kv1.3 potency evaluation, automated patch clamp electrophysiology (QPatch HT) in CHO-Kv1.3 cells. Format: cell-based. The following applies: whole-cell QPatch HT, % inhibition of charge, step to +30 mV, four concentrations, N≥3 cells, read-out: hKv1.3 IC50. The procedure, abridged: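 Automated whole-cell patch clamp in CHO cells stably expressing human Kv1.3; steps from −80 to +30 mV (500 ms) at 0.067 Hz. Four cumulative concentrations after vehicle (0.1-0.3% DMSO); charge inhibition vs vehicle fitted by four-parameter logistic for IC50, N≥3 cells.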
Background: The patch-clamp technique gives a direct electrical read-out from membranes.
`CC1(C)N=C(C23CC(N(Cc4ccc(Cl)c(Cl)c4)S(=O)(=O)CCC(F)F)(C2)C3)N[C@H]1C(=O)NCCC(F)(F)F` (mixture of isomers) [Example 165]: the IC50 was found to be 99 nM.
For the molecule `CC1(C)N=C(C23CC(N(Cc4ccc(Cl)c(F)c4)S(=O)(=O)c4ccccc4)(C2)C3)N[C@H]1C(=O)N1CCC(F)(F)C2(CC2)C1` (mixture of isomers) [Example 166], the IC50 was determined as 99 nM.
In the case of `CC1(C)N=C(C23CC(N(Cc4ccc(Cl)c(Cl)c4)S(=O)(=O)c4ccccc4)(C2)C3)N[C@H]1C(=O)N1CCC(F)(F)C2(CC2)C1` (mixture of isomers) [Example 167], the half-maximal inhibitory concentration (IC50) was found to be 99 nM.
As to `CC1(C)N=C(C23CC(N(Cc4ccc(Cl)c(F)c4)S(=O)(=O)c4ccccc4)(C2)C3)N[C@H]1C(=O)NC(C1CC1)C1CC1` (mixture of isomers) [Example 168], the IC50 worked out at 99 nM.
Regarding `CC1(C)N=C(C23CC(N(Cc4ccc(Cl)c(F)c4)S(=O)(=O)c4ccccc4)(C2)C3)N[C@H]1C(=O)NC1CC1C(F)(F)F` (mixture of isomers) [Example 169], the concentration for half-maximal inhibition (IC50) turned out to be 100 nM.
On to `CC1(C)N=C(C23CC(N(Cc4ccc(Cl)cc4)S(=O)(=O)C4CCC4)(C2)C3)N[C@H]1C(=O)NCCC(F)(F)F` (mixture of isomers) [Example 170], for which the 50% inhibitory concentration (IC50) came out at 101 nM.
With `CC1(C)N=C(C23CC(N(Cc4ccc(Cl)c(F)c4)S(=O)(=O)c4ccccc4)(C2)C3)N[C@H]1C(=O)N1CC[C@H](C(F)(F)F)C1` (mixture of isomers) [Example 171] the figure was 102 nM; with `CC1(C)N=C(C23CC(N(Cc4ccc(Cl)c(F)c4)S(=O)(=O)c4ccccc4)(C2)C3)N[C@H]1C(=O)N1CC(C(F)(F)F)C1` (mixture of isomers) [Example 172], 103 nM.
For the molecule `CCCS(=O)(=O)N(Cc1ccc(Cl)c(Cl)c1)C12CC(C3=NC(C)(C)[C@H](C(=O)NC4CCC(F)(F)CC4)N3)(C1)C2` (mixture of isomers) [Example 174], the IC50 came to 103 nM.
Turning to `CC(C)(C)NC(=O)[C@@H]1NC(C23CC(N(Cc4ccc(Cl)c(F)c4)S(=O)(=O)c4ccccc4)(C2)C3)=NC1(C)C` (mixture of isomers) [Example 175], the IC50 was 104 nM.
With `CC(F)(F)CCS(=O)(=O)N(Cc1ccc(Cl)c(Cl)c1)C12CC(C3=NC(C)(C)[C@H](C(=O)N4CCC(F)(F)CC4)N3)(C1)C2` (mixture of isomers) [Example 176] the figure was 104 nM; with `CC1(C)N=C(C23CC(N(Cc4ccc(Cl)c(Cl)c4)S(=O)(=O)CCC(F)F)(C2)C3)N[C@H]1C(=O)NC1CC(C(F)F)C1` (mixture of isomers) [Example 177], 104 nM.
Take `CC1(C)N=C(C23CC(N(Cc4ccc(Cl)c(F)c4)S(=O)(=O)c4ccccc4)(C2)C3)N[C@H]1C(=O)N1CCC[C@@H](C(F)(F)F)C1` (mixture of isomers) [Example 178]: the IC50 turned out to be 105 nM.
Take `CC1(C)N=C(C23CC(N(Cc4ccc(Cl)c(Cl)c4)S(=O)(=O)CCC(F)F)(C2)C3)N[C@H]1C(=O)NC[C@H]1CC1(F)F` (mixture of isomers) [Example 179]: the half-maximal inhibitory concentration (IC50) turned out to be 105 nM.
As to `CC1(C)N=C(C23CC(N(Cc4ccc(Cl)cc4)S(=O)(=O)c4ccccc4O)(C2)C3)N[C@H]1C(=O)NCCC(F)(F)F` (mixture of isomers) [Example 180], the half-inhibitory concentration (IC50) stood at 106 nM.
With `CN(CC(F)(F)C(F)(F)F)C(=O)[C@@H]1NC(C23CC(N(Cc4ccc(Cl)c(F)c4)S(=O)(=O)c4ccccc4)(C2)C3)=NC1(C)C` (mixture of isomers) [Example 181], the IC50 was found to be 106 nM.
For `CN(C[C@H]1CC1(F)F)C(=O)[C@@H]1NC(C23CC(N(Cc4ccc(Cl)c(Cl)c4)S(=O)(=O)CCC(F)F)(C2)C3)=NC1(C)C` (mixture of isomers) [Example 183], the IC50 was found to be 108 nM.
In the case of `CC1N=C(C23CC(N(Cc4ccc(C(F)(F)F)cc4)S(=O)(=O)c4ccc(F)cc4)(C2)C3)N[C@@]1(C)C(=O)NCC1CCC1` (mixture of isomers) [Example 184], the half-maximal inhibitory concentration (IC50) is 109 nM.
With `CC1(C)N=C(C23CC(N(Cc4ccc(Cl)c(F)c4)S(=O)(=O)c4ccccc4)(C2)C3)N[C@H]1C(=O)N1CCCC1` (mixture of isomers) [Example 185] the figure was 109 nM.
With `CCCS(=O)(=O)N(Cc1ccc(Cl)c(Cl)c1)C12CC(C3=NC(C)(C)[C@H](C(=O)N4CC5CCC(C4)C5(F)F)N3)(C1)C2` (mixture of isomers) [Example 187] the figure was 110 nM.
On to `CC1(C)N=C(C23CC(N(Cc4ccc(Cl)c(F)c4)S(=O)(=O)c4ccccc4)(C2)C3)N[C@H]1C(=O)N1CCC(C(F)(F)F)CC1` (mixture of isomers) [Example 188], for which the IC50 was 112 nM.
Consider `CC1(C)N=C(C23CC(N(Cc4ccc(Cl)c(Cl)c4)S(=O)(=O)c4ccccc4)(C2)C3)N[C@H]1C(=O)NC1CC1C(F)(F)F` (mixture of isomers) [Example 189], for which the IC50 stood at 112 nM.
With `CCCS(=O)(=O)N(Cc1ccc(Cl)c(Cl)c1)C12CC(C3=NC(C)(C)[C@H](C(=O)N4C5CCC4CC(F)(F)C5)N3)(C1)C2` (mixture of isomers) [Example 190] the figure was 113 nM; with `CC1(C)N=C(C23CC(N(Cc4ccc(Cl)cc4)S(=O)(=O)c4ccccc4[N+](=O)[O-])(C2)C3)N[C@H]1C(=O)NCCC(F)(F)F` (mixture of isomers) [Example 191], 114 nM.
Turning to `CC1(C)N=C(C23CC(N(Cc4ccc(Cl)c(Cl)c4)S(=O)(=O)CCC(F)F)(C2)C3)N[C@H]1C(=O)N1CCC(F)(F)CC1` (mixture of isomers) [Example 194], the 50% inhibitory concentration (IC50) worked out at 121 nM.
With `CC1(C)N=C(C23CC(N(Cc4ccc(Cl)c(Cl)c4)S(=O)(=O)c4ccccc4)(C2)C3)N[C@H]1C(=O)N1CC2(C1)CC(F)(F)C2` (mixture of isomers) [Example 195] the figure was 124 nM; with `CC(C)NC(=O)[C@]1(C)CN=C(C23CC(N(Cc4ccc(C(F)(F)F)cc4)S(=O)(=O)c4ccc(F)cc4)(C2)C3)N1` (mixture of isomers) [Example 196], 125 nM; with `CC1(C)N=C(C23CC(N(Cc4ccc(C(F)(F)F)c(F)c4)S(=O)(=O)c4ccccc4)(C2)C3)N[C@H]1C(=O)NCCC(F)(F)F` (mixture of isomers) [Example 197], 126 nM.
Regarding `CC1(C)N=C(C23CC(N(Cc4ccc(Cl)c(F)c4)S(=O)(=O)c4ccccc4)(C2)C3)N[C@H]1C(=O)N1CC2(C1)CC(F)(F)C2` (mixture of isomers) [Example 198], the IC50 was determined as 126 nM.
As for `C[C@]1(C(=O)NC2CCC2)CN=C(C23CC(N(Cc4ccc(C(F)(F)F)cc4)S(=O)(=O)c4ccc(F)cc4)(C2)C3)N1` (mixture of isomers) [Example 199], the 50% inhibitory concentration (IC50) was 129 nM.
In the case of `CC1(C)N=C(C23CC(N(Cc4ccc(Cl)c(F)c4)S(=O)(=O)c4ccccc4)(C2)C3)N[C@H]1C(=O)N1CCC(F)(F)C(C)(C)C1` (mixture of isomers) [Example 200], the IC50 was 129 nM.
Consider `CC1(C)N=C(C23CC(N(Cc4ccc(Cl)cc4)S(=O)(=O)CCC(F)(F)F)(C2)C3)N[C@H]1C(=O)NCCC(F)(F)F` (mixture of isomers) [Example 201], for which the half-maximal inhibitory concentration (IC50) was 131 nM.
With `C[C@]1(C(=O)NCCC(F)(F)F)CN=C(C23CC(N(Cc4ccc(C(F)(F)F)cc4)S(=O)(=O)c4ccc(F)cc4)(C2)C3)N1` (mixture of isomers) [Example 202] the figure was 134 nM.
`CC(C)(C)CNC(=O)[C@@H]1NC(C23CC(N(Cc4ccc(Cl)c(Cl)c4)S(=O)(=O)CCC(C)(F)F)(C2)C3)=NC1(C)C` (mixture of isomers) [Example 203]: the IC50 came out at 134 nM.
With `CC1(C)N=C(C23CC(N(Cc4ccc(Cl)c(Cl)c4)S(=O)(=O)CCC(F)F)(C2)C3)N[C@H]1C(=O)NC1CC(C(F)F)C1` (mixture of isomers) [Example 204] the figure was 135 nM.
For the molecule `CC1(C)N=C(C23CC(N(Cc4ccc(Cl)c(Cl)c4)S(=O)(=O)CCC(F)F)(C2)C3)N[C@H]1C(=O)NCC1CC(F)(F)C1` (mixture of isomers) [Example 205], the IC50 amounted to 136 nM.
For the molecule `CC1(C)N=C(C23CC(N(Cc4ccc(Cl)cc4)S(=O)(=O)CCCC(F)(F)F)(C2)C3)N[C@H]1C(=O)NCCC(F)(F)F` (mixture of isomers) [Example 206], the IC50 amounted to 137 nM.
As for `CN(CCC(F)(F)F)C(=O)[C@@H]1NC(C23CC(N(Cc4ccc(Cl)c(Cl)c4)S(=O)(=O)CCC(F)F)(C2)C3)=NC1(C)C` (mixture of isomers) [Example 207], the IC50 amounted to 137 nM.
With `O=C(NCC1CCC1)[C@H]1CN=C(C23CC(N(Cc4ccc(C(F)(F)F)cc4)S(=O)(=O)c4ccc(F)cc4)(C2)C3)N1` (mixture of isomers) [Example 209] the figure was 144 nM; with `CC1(C)N=C(C23CC(N(Cc4ccc(Cl)c(Cl)c4)S(=O)(=O)CCC(F)F)(C2)C3)N[C@H]1C(=O)NCC(F)(F)C(F)(F)F` (mixture of isomers) [Example 210], 144 nM; with `CC1N=C(C23CC(N(Cc4ccc(C(F)(F)F)cc4)S(=O)(=O)c4ccc(F)cc4)(C2)C3)N[C@@]1(C)C(=O)NCCC(F)(F)F` (mixture of isomers) [Example 211], 148 nM.
With `CC1(C)N=C(C23CC(N(Cc4ccc(Cl)cc4)S(=O)(=O)N4CCC(F)(F)C4)(C2)C3)N[C@H]1C(=O)NCCC(F)(F)F` (mixture of isomers) [Example 212], the IC50 turned out to be 149 nM.
Consider `CC(C)NC(=O)[C@@]1(C)CN=C(C23CC(N(Cc4ccc(C(F)(F)F)cc4)S(=O)(=O)c4ccc(F)cc4)(C2)C3)N1C` (mixture of isomers) [Example 213], for which the half-inhibitory concentration (IC50) came out at 152 nM.
Consider `C[C@]1(C(=O)NCC2CCC2)CN=C(C23CC(N(Cc4ccc(C(F)(F)F)cc4)S(=O)(=O)c4ccc(F)cc4)(C2)C3)N1` (mixture of isomers) [Example 214], for which the IC50 stood at 159 nM.
Regarding `CN(CC(F)(F)C(F)(F)F)C(=O)[C@@H]1NC(C23CC(N(Cc4ccc(Cl)c(Cl)c4)S(=O)(=O)c4ccccc4)(C2)C3)=NC1(C)C` (mixture of isomers) [Example 215], the IC50 came to 159 nM.
